Here are results for 28 molecules from US11649255B2, “Indazoles as hematopoietic progenitor kinase 1 (HPK1) inhibitors and methods using same” (1st Biotherapeutics, Inc., priority 2020, dated 2023).

In this experiment the target is recombinant human HPK1 (Homo sapiens (Human), UniProt Q92918). As to the kind of experiment: HPK1 kinase assay (ADP-Glo). The experiment is classed as biochemical. Conditions: 25 μM ATP, MBP substrate. The method, boiled down: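 Activity was read as ADP formed, detected by ADP-Glo luminescence after the reaction of 5 ng recombinant human HPK1 with MBP and ATP (stocks 0.5 μg/μl and 25 μM) for 40 min at 30 °C. Buffer was Tris pH 7.5 with MgCl2, BSA and DTT, with compound in 0.5% DMSO. IC50 came from inhibition curves.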
recombinant human HPK1, sequence (Q92918 whole entry): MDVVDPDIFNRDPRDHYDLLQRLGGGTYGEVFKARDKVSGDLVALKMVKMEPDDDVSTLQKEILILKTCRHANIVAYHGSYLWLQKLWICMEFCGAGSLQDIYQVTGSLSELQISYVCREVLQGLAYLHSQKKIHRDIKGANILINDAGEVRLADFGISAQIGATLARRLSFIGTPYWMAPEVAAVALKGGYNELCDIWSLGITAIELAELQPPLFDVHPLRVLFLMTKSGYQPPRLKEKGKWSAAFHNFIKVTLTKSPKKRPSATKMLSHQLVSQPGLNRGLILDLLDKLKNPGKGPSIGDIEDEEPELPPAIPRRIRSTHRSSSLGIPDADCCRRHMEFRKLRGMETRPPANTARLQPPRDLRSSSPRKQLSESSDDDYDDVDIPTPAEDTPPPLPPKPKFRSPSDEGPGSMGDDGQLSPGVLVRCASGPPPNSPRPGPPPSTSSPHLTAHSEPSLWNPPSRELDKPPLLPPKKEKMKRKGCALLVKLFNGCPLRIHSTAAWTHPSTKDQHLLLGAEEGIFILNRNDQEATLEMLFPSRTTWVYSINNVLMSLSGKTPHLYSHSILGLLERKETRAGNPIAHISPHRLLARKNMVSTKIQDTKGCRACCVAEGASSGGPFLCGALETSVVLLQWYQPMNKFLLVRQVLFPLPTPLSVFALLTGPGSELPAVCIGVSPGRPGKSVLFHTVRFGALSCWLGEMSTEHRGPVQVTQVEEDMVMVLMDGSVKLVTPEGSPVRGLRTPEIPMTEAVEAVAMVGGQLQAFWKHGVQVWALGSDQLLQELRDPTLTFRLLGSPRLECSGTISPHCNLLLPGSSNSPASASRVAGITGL
For orientation: ADP-Glo first removes unused ATP, then detects ADP through luciferase.
On to `CC(Nc1c(F)c(Cl)c(-c2ccc3nc(NC(=O)[C@@H]4C[C@@H]4F)cn3c2)c2cn[nH]c12)C1CC1` (stereo partly drawn) [Example 420, (1S,2S)-N-(6-(5-chloro-7-((1-cyclopropylethyl)amino)-6-fluoro-1H-indazol-4-yl)imidazo[1,2-a]pyridin-2-yl)-2-fluorocyclopropane-1-carboxamide], for which the 50% inhibitory concentration (IC50) – broadly, the concentration that gives 50% inhibition – was < 100 nM.

For the molecule `O=C(Nc1cc2cc(-c3c(Cl)c(F)c(N4CCSCC4)c4[nH]ncc34)ccn2n1)[C@@H]1C[C@@H]1F` [Example 631, (1S,2S)-N-(5-(5-chloro-6-fluoro-7-thiomorpholino-1H-indazol-4-yl)pyrazolo[1,5-a]pyridin-2-yl)-2-fluorocyclopropane-1-carboxamide], the IC50 was < 100 nM.

As to `CNNc1c(F)c(Cl)c(-c2ccc3nc(NC(=O)[C@@H]4C[C@@H]4F)cn3c2)c2cn[nH]c12` [Example 317, (1S,2S)-N-(6-(5-chloro-6-fluoro-7-(2-methylhydrazineyl)-1H-indazol-4-yl)imidazo[1,2-a]pyridin-2-yl)-2-fluorocyclopropane-1-carboxamide], the IC50 is < 100 nM.

As to `Cc1c(F)cc2[nH]ncc2c1-c1ccc2nc(NC(=O)[C@@H]3C[C@@H]3F)cn2c1` [Example 250, (1S,2S)-2-fluoro-N-(6-(6-fluoro-5-methyl-1H-indazol-4-yl)imidazo[1,2-a]pyridin-2-yl)cyclopropane-1-carboxamide], the half-inhibitory concentration (IC50) was < 100 nM.

For `CN(CCc1ccncc1)c1c(F)c(Cl)c(-c2ccn3nc(NC(=O)[C@@H]4C[C@@H]4F)cc3c2)c2cn[nH]c12` [Example 616, (1S,2S)-N-(5-(5-chloro-6-fluoro-7-(methyl(2-(pyridin-4-yl)ethyl)amino)-1H-indazol-4-yl)pyrazolo[1,5-a]pyridin-2-yl)-2-fluorocyclopropane-1-carboxamide], the IC50 is < 100 nM.

With `CCc1c(F)cc2[nH]ncc2c1-c1ccc2nc(NC(=O)C3CC3)cn2c1` [Example 248, N-(6-(5-ethyl-6-fluoro-1H-indazol-4-yl)imidazo[1,2-a]pyridin-2-yl)cyclopropanecarboxamide], the half-maximal inhibitory concentration (IC50) is < 100 nM.

As for `O=C(O)NC1CN(c2c(F)c(Cl)c(-c3ccc4nc(NC(=O)[C@@H]5C[C@@H]5F)sc4c3)c3cn[nH]c23)C1` [Example 88, (1-(5-chloro-6-fluoro-4-(2-((1S,2S)-2-fluorocyclopropane-1-carboxamido)benzo[d]thiazol-6-yl)-1H-indazol-7-yl)azetidin-3-yl)carbamic acid], the IC50 is < 100 nM.

With `Cc1c(F)c(C(F)(F)F)c2[nH]ncc2c1-c1ccn2nc(NC(=O)[C@@H]3C[C@@H]3F)cc2c1` [Example 482, (1S,2S)-2-fluoro-N-(5-(6-fluoro-5-methyl-7-(trifluoromethyl)-1H-indazol-4-yl)pyrazolo[1,5-a]pyridin-2-yl)cyclopropane-1-carboxamide], the concentration for half-maximal inhibition (IC50) was < 100 nM.

On to `CCSc1c(F)c(Cl)c(-c2ccn3nc(NC(=O)[C@@H]4C[C@@H]4F)cc3c2)c2cn[nH]c12` [Example 621, (1S,2S)-N-(5-(5-chloro-7-(ethylthio)-6-fluoro-1H-indazol-4-yl)pyrazolo[1,5-a]pyridin-2-yl)-2-fluorocyclopropane-1-carboxamide], for which the IC50 is < 100 nM.

Turning to `Cc1ccc2[nH]ncc2c1-c1ccc2nc(NC(=O)[C@@H]3C[C@@H]3F)sc2n1` [Example 146, (1S,2S)-2-fluoro-N-(5-(5-methyl-1H-indazol-4-yl)thiazolo[5,4-b]pyridin-2-yl)cyclopropane-1-carboxamide], the IC50 lay within 101 to 500 nM.

Turning to `CC(=O)c1c(F)c(C)c(-c2ccc3nc(NC(=O)[C@@H]4C[C@@H]4F)cn3c2)c2cn[nH]c12` [Example 322, (1S,2S)-N-(6-(7-acetyl-6-fluoro-5-methyl-1H-indazol-4-yl)imidazo[1,2-a]pyridin-2-yl)-2-fluorocyclopropane-1-carboxamide], the IC50 lay in the range of 101 to 500 nM.

For the molecule `CSc1c(F)c(F)c2[nH]ncc2c1-c1ccc2nc(NC(=O)[C@@H]3C[C@@H]3F)cn2c1` [Example 304, (1S,2S)-N-(6-(6,7-difluoro-5-(methylthio)-1H-indazol-4-yl)imidazo[1,2-a]pyridin-2-yl)-2-fluorocyclopropane-1-carboxamide], the half-inhibitory concentration (IC50) was < 100 nM.

On to `O=C(Nc1nc2ccc(-c3cc(F)c(OC(F)(F)F)c4[nH]ncc34)cc2s1)[C@@H]1C[C@@H]1F` [Example 140, (1S,2S)-2-fluoro-N-(6-(6-fluoro-7-(trifluoromethoxy)-1H-indazol-4-yl)benzo[d]thiazol-2-yl)cyclopropane-1-carboxamide], for which the IC50 was > 1000 nM.

With `CN(C)c1c(F)c(Cl)c(-c2ccc3nc(NC(=O)[C@@H]4C[C@@H]4F)sc3c2)c2cn[nH]c12` [Example 69, (1S,2S)-N-(6-(5-chloro-7-(dimethylamino)-6-fluoro-1H-indazol-4-yl)benzo[d]thiazol-2-yl)-2-fluorocyclopropane-1-carboxamide], the IC50 is < 100 nM.

Consider `CC(=O)Nc1c(F)c(Cl)c(-c2ccc3nc(NC(=O)[C@@H]4C[C@@H]4F)sc3c2)c2cn[nH]c12` [Example 108, (1S,2S)-N-(6-(7-acetamido-5-chloro-6-fluoro-1H-indazol-4-yl)benzo[d]thiazol-2-yl)-2-fluorocyclopropane-1-carboxamide], for which the IC50 is < 100 nM.

With `CC(=O)Nc1c(F)c(Cl)c(-c2ccn3nc(NC(=O)[C@@H]4C[C@@H]4F)cc3c2)c2cn[nH]c12` [Example 537, (1S,2S)-N-(5-(7-acetamido-5-chloro-6-fluoro-1H-indazol-4-yl)pyrazolo[1,5-a]pyridin-2-yl)-2-fluorocyclopropane-1-carboxamide], the IC50 was < 100 nM.

For the molecule `CN(C)CCN(C)c1c(F)c(Cl)c(-c2ccc3nc(NC(=O)[C@@H]4C[C@@H]4F)sc3c2)c2cn[nH]c12` [Example 85, (1S,2S)-N-(6-(5-chloro-7-((2-(dimethylamino)ethyl)(methyl)amino)-6-fluoro-1H-indazol-4-yl)benzo[d]thiazol-2-yl)-2-fluorocyclopropane-1-carboxamide], the IC50 was < 100 nM.

As to `CCN(C)c1c(F)c(Cl)c(-c2ccc3nc(NC(=O)[C@@H]4C[C@@H]4F)cn3c2)c2cn[nH]c12` [Example 306, (1S,2S)-N-(6-(5-chloro-7-(ethyl(methyl)amino)-6-fluoro-1H-indazol-4-yl)imidazo[1,2-a]pyridin-2-yl)-2-fluorocyclopropane-1-carboxamide], the IC50 was < 100 nM.

As to `Cc1c(F)c(S(C)(=O)=O)c2[nH]ncc2c1-c1ccc2nc(NC(=O)[C@@H]3C[C@@H]3F)cn2c1` [Example 270, (1S,2S)-2-fluoro-N-(6-(6-fluoro-5-methyl-7-(methylsulfonyl)-1H-indazol-4-yl)imidazo[1,2-a]pyridin-2-yl)cyclopropane-1-carboxamide], the IC50 lay in the range of 101 to 500 nM.

Consider `Cc1c(F)c(F)c2[nH]ncc2c1-c1ccn2nc(NC(=O)[C@@H]3C[C@@H]3F)cc2c1` [Example 481, (1S,2S)-N-(5-(6,7-difluoro-5-methyl-1H-indazol-4-yl)pyrazolo[1,5-a]pyridin-2-yl)-2-fluorocyclopropane-1-carboxamide], for which the IC50 was < 100 nM.

In the case of `CN(C)c1c(F)cc(-c2ccn3nc(NC(=O)[C@@H]4C[C@@H]4F)cc3c2)c2cn[nH]c12` [Example 583, (1S,2S)-N-(5-(7-(dimethylamino)-6-fluoro-1H-indazol-4-yl)pyrazolo[1,5-a]pyridin-2-yl)-2-fluorocyclopropane-1-carboxamide], the IC50 was < 100 nM.

As to `O=C(Nc1nc2ccc(-c3c(C(F)(F)F)ccc4[nH]ncc34)cc2s1)C1CC1` [Example 17, N-(6-(5-(trifluoromethyl)-1H-indazol-4-yl)benzo[d]thiazol-2-yl)cyclopropanecarboxamide], the IC50 fell in the range of 101 to 500 nM.

On to `COC(=O)c1c(F)c(C)c(-c2ccc3nc(NC(=O)[C@@H]4C[C@@H]4F)sc3n2)c2cn[nH]c12` [Example 183, methyl 6-fluoro-4-(2-((1S,2S)-2-fluorocyclopropane-1-carboxamido)thiazolo[5,4-b]pyridin-5-yl)-5-methyl-1H-indazole-7-carboxylate], for which the IC50 was < 100 nM.

With `CN1CCN(c2c(F)c(Cl)c(-c3ccn4nc(NC(=O)[C@@H]5C[C@@H]5F)cc4c3)c3cn[nH]c23)C1=O` [Example 623, (1S,2S)-N-(5-(5-chloro-6-fluoro-7-(3-methyl-2-oxoimidazolidin-1-yl)-1H-indazol-4-yl)pyrazolo[1,5-a]pyridin-2-yl)-2-fluorocyclopropane-1-carboxamide], the IC50 was < 100 nM.

For `Nc1c(F)cc2[nH]ncc2c1-c1ccc2nc(NC(=O)[C@@H]3C[C@@H]3F)sc2n1` [Example 151, (1S,2S)-N-(5-(5-amino-6-fluoro-1H-indazol-4-yl)thiazolo[5,4-b]pyridin-2-yl)-2-fluorocyclopropane-1-carboxamide], the IC50 is > 1000 nM.

As to `CC(c1c(F)c(Cl)c(-c2ccc3nc(NC(=O)[C@@H]4C[C@@H]4F)cn3c2)c2cn[nH]c12)S(C)(=O)=O` (stereo partly drawn) [Example 444, (1S,2S)-N-(6-(5-chloro-6-fluoro-7-(1-(methylsulfonyl)ethyl)-1H-indazol-4-yl)imidazo[1,2-a]pyridin-2-yl)-2-fluorocyclopropane-1-carboxamide], the IC50 is < 100 nM.

For the molecule `CN(C)C(=O)c1c(F)cc(-c2ccn3nc(NC(=O)[C@@H]4C[C@@H]4F)cc3c2)c2cn[nH]c12` [Example 604, 6-fluoro-4-(2-((1S,2S)-2-fluorocyclopropane-1-carboxamido)pyrazolo[1,5-a]pyridin-5-yl)-N,N-dimethyl-1H-indazole-7-carboxamide], the half-inhibitory concentration (IC50) fell in the range of 101 to 500 nM.

Turning to `CN(C)c1c(F)cc(-c2ccc3nc(NC(=O)[C@@H]4C[C@@H]4F)cn3c2)c2cn[nH]c12` [Example 335, (1S,2S)-N-(6-(7-(dimethylamino)-6-fluoro-1H-indazol-4-yl)imidazo[1,2-a]pyridin-2-yl)-2-fluorocyclopropane-1-carboxamide], the IC50 is < 100 nM.
